Test results published in patent US4927658A, “Tris-hydroxymethyl alkane esters as low calorie fat mimetics” (Nabisco Brands, Inc., priority 1989, dated 1990).
Blank lines part the entries; values can stand above or below the compound they belong to.

Assays:
[1] = test system: porcine pancreatic lipase; assay: in vitro digestibility using pancreatic lipase; type: in vitro ADME; conditions: 37° C., pH 7.1
Protocol: This example outlines the procedure for estimating the in vitro digestibility of the synthetic fat mimetics of this invention using pancreatic lipase.
1. Buffer: A pH 7.1 phosphate buffer is prepared by dissolving 6.8 g. KH2 PO4 in 1 L. of millipore filtered water (to yield 0.05M phosphate). Fifty mg. Ca(NO3)2 and 5.0 g. cholic acid (Na salt, an ox bile isolate from Sigma) are added to give 300 microM Ca^++ and 0.5% cholic acid in 0.05M phosphate. The pH is adjusted to approximately 7.1 with solid NaOH. Several drops of Baker "Resi-analyzed" toluene are added to prevent bacterial growth during storage at 3°-5° C.
2. Lipase: About 15 mg./mL commercial porcine pancreatic lipase from U.S. Biochemical Corporation is dissolved in buffer.
3. Substrates and Standards: A 1.0 mL volumetric flask is charged with an amount of lipid substrate (test substance or standard) calculated to give a concentration of 200 nanomoles per microliter in Baker "Resi-analyzed" toluene. (The proper concentration may be approximated by […] the molecular weight of the lipid in question, dividing by 10, and diluting to the mark; this yields about 200 nanomoles per microliter.) This preparation affords the substrate to be used in the hydrolysis reactions. […]

[2] = in vivo animal feeding study for caloric availability; design: species or system male Sprague-Dawley rats; conditions: rats, diet of 50% fort and 21% test compound, 14 days
Excerpt: This example illustrates how the novel fat mimetics of this invention are screened for caloric availability by a carefully controlled in vivo animal feeding study.
An experimental relationship between total calories ingested and animal body weight gain is established by monitoring the body weight gain associated with consumption of a nutritionally balanced diet containing varying concentrations of a reference substance such as corn oil which has a known caloric availability. Correlations between total calories ingested and body weight gain are excellent (r=0.99).
Caloric availability of an unknown substance is evaluated by substituting a specific weight of the unknown substance for the reference substance and observing the body weight gain. The gain in body weight is equated to a total number of calories using the correlation previously established for the reference data. The estimated number of calories ingested are divided by the weight of unknown substance to give the apparent calories per gram for the unknown substance. Generally speaking, in these bioavailability studies, the degree of perianal pelt soiling correlates with reduced bioavailability.
The test animals are six-week-old male Sprague-Dawley rats obtained from the Portage, Mich. facility of the Charles River Laboratories, Inc. After acclamation for 15 days, the test duration is 14 days. […]

[3] = test system: pancreatic lipase; conditions: Minich, col. 4, lines 62-64; cited from earlier work
[4] = rat, in vivo; cited from earlier work

hydrolysis by pancreatic lipase ([1]; after three hours contact with pancreatic lipase): limited hydrolysis
caloric availability upon being metabolized [2]: about 3.3 kcal/gram
Compound: CCCCCCCC/C=C\CCCCCCCC(=O)OCC(C)(COC(=O)CCCCCCC/C=C\CCCCCCCC)COC(=O)CCCCCCC/C=C\CCCCCCCC [Example 1, 1,1,1-Tris hydroxymethylethane trioleate]

Compound: CCCCCCCC(=O)OCC(COC(=O)CCCCCCC)(COC(=O)CCCCCCC)COC(=O)CCCCCCC [pentaerythritol tetracaprylate]
hydrolysis by pancreatic lipase [3]: not attacked, hydrolyzed

Compound: corn oil
caloric availability of reference [4]: 9.0 calories/gram

hydrolysis by pancreatic lipase ([1]; triglyceride control, in 10 minutes): substantially hydrolyzed
Compound: CCCCCCCC/C=C\CCCCCCCC(=O)OCC(COC(=O)CCCCCCC/C=C\CCCCCCCC)OC(=O)CCCCCCC/C=C\CCCCCCCC [triolein]
